According to patent US8431596B2 (Cancer Research Technology Limited, priority 2007, dated 2013):
“And” between values parts separate entries of the source, which are not always exact repeats. Identical values can stand only once.

Biological target: T1, AXL (human catalytic domain) (Homo sapiens, UniProt P30530)
T1 construct: purchased Upstate Ltd. 14-512
T1 sequence (P30530 473-894): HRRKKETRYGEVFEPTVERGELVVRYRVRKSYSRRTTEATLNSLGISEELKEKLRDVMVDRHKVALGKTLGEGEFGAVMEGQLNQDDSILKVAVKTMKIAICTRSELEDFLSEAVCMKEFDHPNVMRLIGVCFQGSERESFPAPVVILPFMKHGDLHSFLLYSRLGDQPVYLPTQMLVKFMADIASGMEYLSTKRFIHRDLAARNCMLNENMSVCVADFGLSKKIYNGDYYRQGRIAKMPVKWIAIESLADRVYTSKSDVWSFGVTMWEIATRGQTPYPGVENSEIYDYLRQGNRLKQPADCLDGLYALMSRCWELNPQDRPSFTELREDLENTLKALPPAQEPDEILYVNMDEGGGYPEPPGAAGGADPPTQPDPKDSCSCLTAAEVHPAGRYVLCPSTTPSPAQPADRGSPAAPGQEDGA
Test: AXL (human catalytic domain) Enzyme Activity Assay (IMAP fluorescence polarisation)
Format: biochemical
How it was run: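 Recombinant human AXL isoform 1 (aa473-894; final 15 nM) phosphorylated 100 nM fluorescein-CSK-tide with 150 μM ATP (KM) in HEPES pH 7.0/MgCl2/DTT buffer for 60 min at room temperature. IMAP fluorescence polarisation read after overnight binding; IC50 from 10-point 4-parameter logistic fits.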

[1] = first data set, recombinant AXL isoform 1 aa473-894, 150 μM ATP
[2] = further data set (WW-001 through WW-169, XX-001 through XX-469, YY-001 through YY-016, ZZ-001 through ZZ-003), 150 μM ATP

| SMILES | IC50 [1] | IC50 [2] [nM] |
| --- | --- | --- |
| c1cc(-c2ccc3c(c2)OCO3)n2nc(Nc3ccc(OCCN4CCCC4)cc3)nc2c1 [XX-021] | < 1000 nM | ≤ 100 |
| CN1CCN(c2ccc(-c3cccc4nc(NC(=O)C5CC5)nn34)cc2)CC1 [WW-003, Cyclopropanecarboxylic acid {5-[4-(4-methyl-piperazin-1-yl)-phenyl]-[1,2,4]triazolo [1,5-a]pyridin-2-yl}-amide] | 1000 to 10000 nM | 1000 to 10000 |
| Cc1ccc(-c2cccc3nc(NC(=O)C4CC4)nn23)cc1 [WW-047] | < 1000 nM | 100 to 1000 |
| CC(=O)Nc1cccc(-c2cccc3nc(NC(=O)C4CC4)nn23)c1 [WW-002, Cyclopropanecarboxylic acid [5-(3-acetylamino-phenyl)-[1,2,4]triazolo [1,5-a]pyridin-2-yl]-amide] | 1000 to 10000 nM | 1000 to 10000 |
| c1cc(NCCCN2CCCC2)cc(Nc2nc3cccc(-c4ccc5c(c4)OCCO5)n3n2)c1 [XX-117] | – | 100 to 1000 |
| O=C(Nc1nc2cccc(NC3CCCC3)n2n1)C1CC1 [WW-078] | 1000 to 10000 nM | 1000 to 10000 |
| c1cc(NCc2ncc[nH]2)cc(-c2cccc3nc(Nc4ccc(OCCN5CCCC5)cc4)nn23)c1 [XX-261] | – | 100 to 1000 |
| O=C(Nc1ccc(C(F)(F)F)cc1)Nc1cccc(-c2cccc3nc(Nc4ccc(OCCN5CCCC5)cc4)nn23)c1 [XX-225] | – | 1000 to 10000 |
| O=C(Nc1nc2cccc(-c3cnn(Cc4ccccc4)c3)n2n1)C1CC1 [WW-105] | 1000 to 10000 nM | 1000 to 10000 |
| NC(=O)c1cccc(-c2cccc3nc(NC(=O)C4CC4)nn23)c1 [WW-015] | 1000 to 10000 nM | 1000 to 10000 |
| CC(C)NC(=O)Cn1cc(-c2cccc3nc(Nc4ccc(OCCN5CCCC5)cc4)nn23)cn1 [XX-434] | – | 1000 to 10000 |
| Cc1cccc(CNc2cccc(-c3cccc4nc(Nc5ccc(OCCN6CCCC6)cc5)nn34)c2)c1 [XX-455] | – | 1000 to 10000 |
| c1cc(NCCN2CCCC2)cc(Nc2nc3cccc(-c4ccc5c(c4)OCCO5)n3n2)c1 [XX-116] | – | 100 to 1000 |
| Cn1nnnc1SCCn1cc(-c2cccc3nc(Nc4ccc(OCCN5CCCC5)cc4)nn23)cn1 [XX-428] | – | 1000 to 10000 |
| CC(CNc1ccc(Nc2nc3cccc(-c4ccc5c(c4)OCCO5)n3n2)cc1)N1CCCC1 (stereo not shown) [XX-139] | – | ≤ 100 |
| COc1cc(-c2cccc3nc(Nc4ccc(OCCN5CCCC5)cc4)nn23)ccc1F [XX-334] | – | 100 to 1000 |
| Oc1cc(F)ccc1-c1cccc2nc(Nc3ccc(OCCN4CCCC4)cc3)nn12 [XX-196] | – | 1000 to 10000 |
| CCN(CC)CCOc1cc(Nc2nc3cccc(-c4ccc(OC(C)C)cc4)n3n2)ccn1 [XX-360] | – | ≤ 100 |
| CCC(C)S(=O)(=O)n1cc(-c2cccc3nc(Nc4ccc(OCCN5CCCC5)cc4)nn23)cn1 (stereo not shown) [XX-383] | – | ≤ 100 |
| Cc1ccc(-c2cccc3nc(Nc4ccc(OCCN5CCCC5)cc4)nn23)cc1F [XX-280] | – | ≤ 100 |

| SMILES | IC50 [1] | IC50 [2] [nM] |
| --- | --- | --- |
| c1cc(NCCCN2CCCCC2)cc(Nc2nc3cccc(-c4ccc5c(c4)OCCO5)n3n2)c1 [XX-131] | – | ≤ 100 |
| CCOC(=O)c1cccc(-c2cccc3nc(Nc4ccc(OCCN5CCCC5)cc4)nn23)c1 [XX-089] | – | 1000 to 10000 |
| Cn1ccnc1CNc1cccc(-c2cccc3nc(Nc4ccc(OCCN5CCCC5)cc4)nn23)c1 [XX-258] | – | 1000 to 10000 |
| O=C(Nc1cccc(-c2cccc3nc(Nc4ccc(OCCN5CCCC5)cc4)nn23)c1)C1CC1 [XX-178] | – | 100 to 1000 |
| COc1ccc(-c2nccc3nc(Nc4ccc(OCCN(C)C)cc4)nn23)cc1 [YY-003] | < 1000 nM and 105 nM | 100 to 1000 |
| CN1CCN(C(=O)c2cccc(Nc3nc4cccc(-c5ccc6c(c5)OCCO6)n4n3)c2)CC1 [XX-114] | – | 100 to 1000 |
| FC1(F)CCN(CCOc2ccc(Nc3nc4cccc(-c5ccc6c(c5)OCCO6)n4n3)cc2)C1 [XX-158] | – | 1000 to 10000 |
| CC(C)Cn1cc(-c2cccc3nc(Nc4ccc(OCCN5CCCC5)cc4)nn23)cn1 [XX-274] | – | 1000 to 10000 |
| COc1ccc(-c2cccc3nc(Nc4ccc(N(C)C(=O)C(C)N5CCCC5)cc4)nn23)cc1 (stereo not shown) [XX-355] | – | 100 to 1000 |
| c1cc(NCC2CC2)cc(-c2cccc3nc(Nc4ccc(OCCN5CCCC5)cc4)nn23)c1 [XX-444] | – | 100 to 1000 |
| COc1ccc(-c2cccc3nc(Nc4ccc(OC)nc4)nn23)cc1 [XX-010] | 1000 to 10000 nM | – |
| O=C(Nc1nc2cccc(-c3cccc(O)c3)n2n1)C1CC1 [WW-020] | 1000 to 10000 nM | 1000 to 10000 |
| CCOc1cccc(-c2cccc3nc(Nc4ccc(OCCN5CCCC5)cc4)nn23)c1 [XX-337] | – | 100 to 1000 |
| c1ccc(-c2nnc(-c3cccc(-c4cccc5nc(Nc6ccc(OCCN7CCCC7)cc6)nn45)c3)o2)cc1 [XX-309, {5-[3-(5-Phenyl-[1,3,4]oxadiazol-2-yl)-phenyl]-[1,2,4]triazolo[1,5-a]pyridin-2-yl}-[4-(2-pyrrolidin-1-yl-ethoxy)-phenyl]-amine] | – | 1000 to 10000 |
| CN(C)CCOc1cccc(Nc2nc3cccc(-c4ccc5c(c4)OCCO5)n3n2)c1 [XX-074] | < 1000 nM | ≤ 100 |
| Cn1ccc2cc(-c3cccc4nc(NC(=O)C5CC5)nn34)ccc21 [WW-066] | < 1000 nM | 100 to 1000 |
| CCOc1ccc(-c2nccc3nc(NC(=O)C4CC4)nn23)cc1 [ZZ-002] | – | 100 to 1000 |
| O=C(Nc1nc2cccc(-c3ccc4c(c3)OCCCO4)n2n1)C1CC1 [WW-144] | 1000 to 10000 nM | 1000 to 10000 |
| CCN(CC)CCCOc1ccc(Nc2nc3cccc(-c4ccc5c(c4)OCCO5)n3n2)cc1 [XX-329] | – | 100 to 1000 |
| Cc1csc(-c2cccc3nc(NC(=O)C4CC4)nn23)c1 [WW-058] | 1000 to 10000 nM | 1000 to 10000 |

| SMILES | IC50 [1] | IC50 [2] [nM] |
| --- | --- | --- |
| O=C(Nc1cccc(-c2cccc3nc(Nc4ccc(OCCN5CCCC5)cc4)nn23)c1)c1ccccc1 [XX-179] | – | 100 to 1000 |
| O=C(Nc1cccc(-c2cccc3nc(Nc4ccc(OCCN5CCCC5)cc4)nn23)c1)c1ccco1 [XX-181] | – | 100 to 1000 |
| c1cc(-c2ccc3nonc3c2)n2nc(Nc3ccc(OCCN4CCCC4)cc3)nc2c1 [XX-208] | – | 100 to 1000 |
| O=C(Nc1nc2cccc(-c3ccccc3O)n2n1)C1CC1 [WW-037] | 1000 to 10000 nM | 1000 to 10000 |
| Cc1cccc(-c2cccc3nc(NC(=O)C4CC4)nn23)c1 [WW-034] | 1000 to 10000 nM | 1000 to 10000 |
| CCn1cc(-c2cccc(-c3cccc4nc(Nc5ccc(OCCN6CCCC6)cc5)nn34)c2)cn1 [XX-172] | – | 100 to 1000 |
| O=S(=O)(c1ccccc1Cl)n1cc(-c2cccc3nc(Nc4ccc(OCCN5CCCC5)cc4)nn23)cn1 [XX-378] | – | ≤ 100 |
| COc1ccc(-c2cccc3nc(Nc4ccc(OCCN5CCOCC5)cc4)nn23)cc1 [XX-005] | < 1000 nM | ≤ 100 |
| c1cc(-c2ccc3c(c2)OCCO3)n2nc(Nc3ccc(N4CCNCC4)cc3)nc2c1 [XX-060] | < 1000 nM | ≤ 100 |
| Cn1cc(-c2ccc(-c3cccc4nc(Nc5ccc(OCCN6CCCC6)cc5)nn34)cc2)cn1 [XX-149] | – | 100 to 1000 |
| c1cc(Nc2nc3cccc(-c4ccc5c(c4)OCCO5)n3n2)cc(OCCN2CCCC2)c1 [XX-100] | – | 100 to 1000 |
| FC(F)(F)c1ccc(-c2nccc3nc(Nc4ccc(OCCN5CCCC5)cc4)nn23)cc1 [YY-013] | – | 100 to 1000 |
| Cn1cc(-c2cccc(-c3cccc4nc(Nc5ccc(OCCN6CCCC6)cc5)nn34)c2)cn1 [XX-171] | – | 100 to 1000 |
| O=C(Nc1ccccc1)Nc1cccc(-c2cccc3nc(Nc4ccc(OCCN5CCCC5)cc4)nn23)c1 [XX-174, 1-Phenyl-3-(3-{2-[4-(2-pyrrolidin-1-yl-ethoxy)-phenylamino]-[1,2,4]triazolo[1,5-a]pyridin-5-yl}-phenyl)-urea] | – | 100 to 1000 |
| Cc1ccc(-c2cccc3nc(NC(=O)C4CC4)nn23)s1 [WW-055] | 1000 to 10000 nM | 1000 to 10000 |
| COCCn1cc(-c2cccc3nc(Nc4ccc(OCCN5CCCC5)cc4)nn23)cn1 [XX-349] | – | 100 to 1000 |
| c1ccc(CNc2cccc(-c3cccc4nc(Nc5ccc(OCCN6CCCC6)cc5)nn34)c2)cc1 [XX-398] | – | 100 to 1000 |
| O=C(Nc1nc2cccc(-c3cccc([N+](=O)[O-])c3)n2n1)C1CC1 [WW-091] | 1000 to 10000 nM | 1000 to 10000 |
| O=C(Nc1nc2cccc(-c3ccccc3F)n2n1)C1CC1 [WW-025] | 1000 to 10000 nM | 1000 to 10000 |
